Results as given in patent US20020110601A1, “Antineoplastic platinum therapeutic method and composition” (priority 2000, published 2002).

Tests used:
[1] = tested on: malignant pleural mesothelioma; test: Intrapleural administration in malignant pleural mesothelioma: indwelling catheter versus needle; parameters: species or system human; conditions: in vivo
Experimental: The first cycle of platinum drug by the present invention was administered 7 days after a baseline thoracoscopy. […] The starting fluid volume infused was 225 ml. Dosages of up to about 450 mg/M^2 are useful, but the empirical end point is compromised respiration such as shortness of breath. […] Repeated administrations were given every 3 to 4 weeks with attention to the presence or absence of a draining pleural effusion without loculation or (adhesions). That is a loculation surrounding the catheter entry must be broken u or carefully drained at the time of additional drug introduction to avoid hydrostatic pressure increases. […] If the fluid was still draining through the indwelling catheter, the patient received a third treatment seven days after the this thoracoscopy. […] While the course of treatment is within the skill of the medical professional with a view to the presenting condition of each patient, some initial parameters are noted. Intrapleural infusion is usefully held between consecutive cycles until the absolute granulocyte count is >1,500/mm^3 and platelets >100,000/mm^3 and complete recovery of non-hematological toxicities.

[2] = in vivo, iv; cited from earlier work
[3] = tested on: malignant pleural effusions; conditions: human, in vivo
Experimental: A Phase I trial using the procedures of the present invention employed L-NDDP administered by intrapleural administration in patients with malignant pleural effusions.
Therapy began with a starting dose was 75 mg/m^2. […] Four patients were treated at the highest tested dose of 550 mg/m^2.

liposomal-cis-bis-neodecanoato-trans-R,R-1,2-diaminocyclohexane platinum (II) [L-NDDP]
extravasation and sepsis [1]: avoided extravasation and sepsis
dose limiting toxicity [2]: myelosuppression
local pain [3]: no local pain
toxicity [3]: mild nausea and vomiting
systemic toxicity ([3]; iv): No systemic toxicity
